Data published in patent publication US20240199881A1, “METAL COMPLEX DYES FOR INKJET PRINTING” (Videojet Technologies Inc., priority 2021, published 2024).

Experiment: Saturated solubility testing in butanone and ethanol
Format: physicochemical
Settings: for Solubility (w/w) in butanone: solvent butanone; for Solubility (w/w) in ethanol: solvent ethanol

Solubility (w/w) in butanone | Solubility (w/w) in ethanol | Structure (SMILES)
6% (w/w) | <1% (w/w) | O=[N+]([O-])c1ccc2c(c1)/N=N/c1c(ccc3ccccc13)[O][Fe]1([O]2)[O]c2ccc([N+](=O)[O-])cc2/N=N/c2c(ccc3ccccc23)[O]1 [Example 59]
≥20% (w/w) | <2% (w/w) | CCC(C)(C)c1cc2c(c([N+](=O)[O-])c1)[O][Fe]1([O]c3ccc4ccccc4c3/N=N/2)[O]c2ccc3ccccc3c2/N=N/c2cc(C(C)(C)CC)cc([N+](=O)[O-])c2[O]1 [Example 60]

Structure (SMILES) | Solubility (w/w) in butanone | Solubility (w/w) in ethanol
O=[N+]([O-])c1ccc2c(c1)[O][Fe]1([O]c3cc([N+](=O)[O-])ccc3/N=N/c3c(ccc4ccccc34)[O]1)[O]c1ccc3ccccc3c1/N=N/2 [Example 29] | 50% (w/w) | <1% (w/w)
